Test results: patent publication US4904585A, “Novel antibiotic NK84-0218 and process for the production of the same” (Nippon Kayaku Kabushiki Kaisha, priority 1984, dated 1990)
≈ marks a conversion by molar mass, not a printed value.

Key:
[1] = system: Staphylococcus aureus EDA 209P; assay: Antibacterial spectrum, agar plate dilution method; assay type: cell-based; details: 0.5% peptone agar, read-out: Minimum inhibitory concentration
[2] = system: Bacillus subtilis PCI 219; assay: Antibacterial spectrum, agar plate dilution method; assay type: cell-based; details: PCI219, 0.5% peptone agar, read-out: Minimum inhibitory concentration
[3] = system: Bacillus subtilis ATCC 6633; assay: Antibacterial spectrum, agar plate dilution method; assay type: cell-based; details: ATCC6633, 0.5% peptone agar, read-out: Minimum inhibitory concentration
Bacillus cereus IAM 1072 = assay: Antibacterial spectrum, agar plate dilution method; assay type: cell-based; details: IAM1072, 0.5% peptone agar, read-out: Minimum inhibitory concentration
[4] = system: Bacillus polymyxa IAM 1210; assay: Antibacterial spectrum, agar plate dilution method; assay type: cell-based; details: Paenibacillus polymyxa, IAM1210, 0.5% peptone agar, read-out: Minimum inhibitory concentration
[5] = system: Bacillus megaterium ATCC 14945; assay: Antibacterial spectrum, agar plate dilution method; assay type: cell-based; details: Priestia megaterium, ATCC14945, 0.5% peptone agar, read-out: Minimum inhibitory concentration
[6] = system: Bacillus licheniformis IFO 12107; assay: Antibacterial spectrum, agar plate dilution method; assay type: cell-based; details: IFO12107, 0.5% peptone agar, read-out: Minimum inhibitory concentration
[7] = system: Micrococcus flavus ATCC 10240; assay: Antibacterial spectrum, agar plate dilution method; assay type: cell-based; details: ATCC10240, 0.5% peptone agar, read-out: Minimum inhibitory concentration
[8] = system: Micrococcus luteus ATCC 9341; assay: Antibacterial spectrum, agar plate dilution method; assay type: cell-based; details: ATCC9341, 0.5% peptone agar, read-out: Minimum inhibitory concentration
Escherichia coli NIHJ = assay: Antibacterial spectrum, agar plate dilution method; assay type: cell-based; details: 0.5% peptone agar, read-out: Minimum inhibitory concentration
Escherichia coli K-12 = assay: Antibacterial spectrum, agar plate dilution method; assay type: cell-based; details: K12, 0.5% peptone agar, read-out: Minimum inhibitory concentration
[9] = system: Klebsiella pneumoniae PCI 602; assay: Antibacterial spectrum, agar plate dilution method; assay type: cell-based; details: PCI602, 0.5% peptone agar, read-out: Minimum inhibitory concentration
[10] = system: Proteus morganii IFO 3168; assay: Antibacterial spectrum, agar plate dilution method; assay type: cell-based; details: Morganella morganii, IFO3168, 0.5% peptone agar, read-out: Minimum inhibitory concentration
[11] = system: Proteus vulgaris IFO 3045; assay: Antibacterial spectrum, agar plate dilution method; assay type: cell-based; details: IFO3045, 0.5% peptone agar, read-out: Minimum inhibitory concentration
[12] = system: Proteus mirabilis IFO 3849; assay: Antibacterial spectrum, agar plate dilution method; assay type: cell-based; details: IFO3849, 0.5% peptone agar, read-out: Minimum inhibitory concentration
[13] = system: Pseudomonas aernginosa IFO 3445; assay: Antibacterial spectrum, agar plate dilution method; assay type: cell-based; details: IFO3445, 0.5% peptone agar, read-out: Minimum inhibitory concentration
[14] = system: Salmonella typhi 901 (MS-1); assay: Antibacterial spectrum, agar plate dilution method; assay type: cell-based; details: Salmonella enterica, read-out: Minimum inhibitory concentration
[15] = system: Salmonella paratyphi 1015 (MS-1); assay: Antibacterial spectrum, agar plate dilution method; assay type: cell-based; details: Salmonella enterica, read-out: Minimum inhibitory concentration
[16] = system: Salmonella enteritidis G14 (MS-1); assay: Antibacterial spectrum, agar plate dilution method; assay type: cell-based; details: Salmonella enterica, 0.5% peptone agar, read-out: Minimum inhibitory concentration
[17] = system: Enterobacter aerogenes ATCC 13048 (MS-1); assay: Antibacterial spectrum, agar plate dilution method; assay type: cell-based; details: Klebsiella aerogenes, ATCC13048, 0.5% peptone agar, read-out: Minimum inhibitory concentration
[18] = system: Serratia marcescens GM 6484; assay: Antibacterial spectrum, agar plate dilution method; assay type: cell-based; details: GM6484, 0.5% peptone agar, read-out: Minimum inhibitory concentration
[19] = system: Candida albicans NIH 3147; assay: Antibacterial spectrum, agar plate dilution method; assay type: cell-based; details: NIH3147, 0.5% peptone agar, read-out: Minimum inhibitory concentration
[20] = system: Mycobacterium smegmatis ATCC 607; assay: Antibacterial spectrum, agar plate dilution method; assay type: cell-based; details: Mycolicibacterium smegmatis, ATCC607, 0.5% peptone agar, read-out: Minimum inhibitory concentration
gram-positive bacteria = assay: Antibacterial spectrum, summary in words; assay type: cell-based; details: S. aureus FDA 209P, Bacillus including B. subtilis PCI 219 and B. cereus IAM 1072, Micrococcus flavus ATCC 10240
gram-negative bacteria = assay: Antibacterial spectrum, summary in words; assay type: cell-based; details: agar plate dilution method
HeLa cell = assay: Anti-HeLa cell activity; assay type: cell-based; details: for Cells/plate: 72 hours after the addition
Experimental: *The number of cells 72 hours after the addition of NK840218.

[21] = system: herpes simplex virus-I (HSV-I); assay: Antiviral activity, cytopathic effect of HSV-I on Vero cells; assay type: cell-based
Experimental: A medium containing a definite amount of NK84-0218 and herpes simplex virus-I (HSV-I) 5-10 TC ID50 are added onto a single layer of vero cells in a microplate having 96 wells and cultured in a 5% by volume carbon dioxide incubator at 37° C. for 96 to 120 hours. Then the antiviral activity of the test substance is determined by microscopically observing the cytopathic effect (CPE) of the HSV-I on the Vero cells. The inhibition is taken as effective when no CPE is observed in a well. For example, when CPE is observed in one well among ten at the same concentration, the inhibition ratio is 90%.

Acute toxicity on mice = assay type: in vivo
Solubility in solvents = assay type: physicochemical
Description: In order to isolate the antibiotic of the present invention, the culturing broth is purified in a manner conventionally used in isolating a metabolite of a microorganism from its culturing broth. […] For example, the culturing broth is adjusted to a pH value of 3.5 to 6.5, preferably 4 to 4.5, adsorbed by powdery active carbon, washed with water and eluted with a 50% aqueous acetone and the active fraction thus obtained is concentrated and lyophilized to give a brown crude powder. Then this powder is dissolved in methanol and insoluble substances are removed. The soluble portion is dried, dissolved in water, adsorbed by an active carbon column, washed with water and subjected to acetone linear concentration gradient elution with water and 50% aqueous acetone. The obtained active fraction is concentrated and lyophilized. The pale brown powder containing NK84-0218 thus obtained is dissolved in a small amount of water and packed into an Avicel column. Then it is developed with an aqueous alcohol and eluted with increasing the water content stepwise. The active fractions thus obtained are combined, concentrated and lyophilized. Subsequently the obtained powder is dissolved in a small amount of water and packed into an SP Sephadex® C-25(Na^+) column previously equilibrated with 0.02M sodium chloride. The active fractions eluted with 0.02M sodium chloride are desalted on active carbon to give a colorless powder. The powder thus purified is treated with water or an aqueous alcohol to give NK84-0218 in the form of colorless needles. The titer during the cultivation is determined by plate cup assay with Bacillus subtilis PCI 219.

SMILES: Nc1ncnc2c1ncn2C1OC(CO)C1CO (centres unmarked) [NK84-0218]
- MIC [1]: < 0.1 µg/mL
- MIC [2]: < 0.1 µg/mL
- MIC [3]: < 0.1 µg/mL
- MIC (Bacillus cereus IAM 1072): < 0.1 µg/mL
- MIC [4]: < 0.1 µg/mL
- MIC [5]: 1.56 µg/mL (≈ 6.21 µM)
- MIC [6]: 6.25 µg/mL (≈ 24.9 µM)
- MIC [7]: 6.25 µg/mL (≈ 24.9 µM)
- MIC [8]: 3.12 µg/mL (≈ 12.4 µM)
- MIC (Escherichia coli NIHJ): > 100 µg/mL
- MIC (Escherichia coli K-12): > 100 µg/mL
- MIC [9]: > 100 µg/mL
- MIC [10]: > 100 µg/mL
- MIC [11]: > 100 µg/mL
- MIC [12]: > 100 µg/mL
- MIC [13]: > 100 µg/mL
- MIC [14]: > 100 µg/mL
- MIC [15]: > 100 µg/mL
- MIC [16]: > 100 µg/mL
- MIC [17]: > 100 µg/mL
- MIC [18]: > 100 µg/mL
- MIC [19]: > 100 µg/mL
- MIC [20]: > 100 µg/mL
- inhibiting the growth of gram-positive bacteria (gram-positive bacteria): intense effects of inhibiting the growth
- effect on gram-negative bacteria (gram-negative bacteria): no effect
- Cells/plate (HeLa cell; 0.39 μg/ml): 14.35 × 10^5
- Cells/plate (HeLa cell; 1.56 μg/ml): 14.64 × 10^5
- Cells/plate (HeLa cell; 6.25 μg/ml): 13.91 × 10^5
- Cells/plate (HeLa cell; 25 μg/ml): 13.47 × 10^5
- Cells/plate (HeLa cell; 100 μg/ml): 2.78 × 10^5
- inhibition at 0.39 µg/mL (HeLa cell; Homo sapiens, HeLa, 0.39 μg/ml, 72 hours, read-out: Inhibition ratio): 3.58%
- inhibition at 1.56 µg/mL (HeLa cell; Homo sapiens, HeLa, 1.56 μg/ml, 72 hours, read-out: Inhibition ratio): 1.26%
- inhibition at 6.25 µg/mL (HeLa cell; Homo sapiens, HeLa, 6.25 μg/ml, 72 hours, read-out: Inhibition ratio): 6.94%
- inhibition at 25 µg/mL (HeLa cell; Homo sapiens, HeLa, 25 μg/ml, 72 hours, read-out: Inhibition ratio): 10.2%
- inhibition at 100 µg/mL (HeLa cell; Homo sapiens, HeLa, 100 μg/ml, 72 hours, read-out: Inhibition ratio): 93.4%
- IC50 (HeLa cell; Homo sapiens, HeLa cell, 72 hours): ~47 µg/mL (≈ 187 µM)
- antiviral activity (in words) [21]: exhibits an antiviral activity
- acute toxicity compared with various known nucleoside antibiotics (Acute toxicity on mice; i.v.): lower than those of various known nucleoside antibiotics
- LD50 (Acute toxicity on mice; mouse, in vivo, iv): ≥ 100 mg/kg
- Solubility (Solubility in solvents; in dimethyl sulfoxide): soluble
- Solubility (Solubility in solvents; in ethanol): soluble
- Solubility (Solubility in solvents; in methanol): soluble
- Solubility (Solubility in solvents; in other organic solvents such as propanol, acetone, ethyl acetate, ether and benzene): hardly or not soluble
- Solubility (Solubility in solvents; in water): soluble
